Calls of active or inactive are those of the source. The calls are words filed in the database; no cut-off is given here.
Tests used:
[1] = Stability of the compound in water at 100 uM after 24 hr; assay type: physicochemical; details: buffer
[2] = Stability of the compound in RPMI-1640 medium at 100 uM after 6 days; assay type: physicochemical; details: 144 h
[3] = test system: B16; experiment: Cytotoxicity against Mus musculus (mouse) B16 cells assessed as reduction of cell number at 50 umol/L after 12 hr by MTT assay; assay type: functional, cell-based
[4] = test system: Bel-7402; experiment: Cytotoxicity against Homo sapiens (human) Bel7402 cells assessed as reduction of cell number at 50 umol/L after 12 hr by MTT assay; assay type: functional, cell-based
[5] = test system: B16; experiment: Cytotoxicity against Mus musculus (mouse) B16 cells assessed as reduction of cell number up to 250 umol/L after 12 hr by MTT assay; assay type: functional, cell-based
[6] = test system: Bel-7402; experiment: Cytotoxicity against Homo sapiens (human) Bel7402 cells assessed as reduction of cell number up to 250 umol/L after 12 hr by MTT assay; assay type: functional, cell-based
[7] = test system: Bel-7402; experiment: Cytotoxicity against Homo sapiens (human) Bel7402 cells assessed as reduction of cell number after 12 hr by MTT assay; assay type: functional, cell-based; details: Bel-7402, 12 h
[8] = test system: B16; experiment: Cytotoxicity against Mus musculus (mouse) B16 cells assessed as reduction of cell number after 12 hr by MTT assay; assay type: functional, cell-based; details: B16, 12 h

Row | Compound | Stability [1] | Stability [2] | Activity [3] | Activity [4] | Activity [5] | Activity [6] | IC50 [7] [µM] | IC50 [8] [µM]
1 | CC1(C)[C@@H](O)CC[C@]2(C)[C@H]3C(=O)C=C4[C@@H]5C[C@@](C)(C(=O)O)CC[C@]5(C)CC[C@@]4(C)[C@]3(C)CC[C@@H]12 [ENOXOLONE] | Unstable | Stable | inactive | inactive | Active | Active |  | 
2 | CC1(C)[C@@H](O)CC[C@]2(C)[C@H]3C(=O)C=C4[C@@H]5C[C@@](C)(C(=O)NCCCCCCNC(=O)CCCC[C@@H]6SC[C@@H]7NC(=O)N[C@@H]76)CC[C@]5(C)CC[C@@]4(C)[C@]3(C)CC[C@@H]12 | Stable | Stable | inactive | inactive | Active | Active | 175 | 170

— ChEMBL document CHEMBL3044737, “Synthesis of biotinylated 18-glycyrrhetinic acid and its effect on tumor cells activity” (Med Chem Res, 2009)
